# Laboratory results reported in patent US6461997B1, “Triazole sulfones having herbicidal activity” (Monsanto Technology LLC, priority 1999, dated 2002).
# Test system: AMARE (redroot pigweed)
# Test: Pre-emergence herbicidal activity, warm season
# Assay type: in vivo, Amaranthus retroflexus
# Settings: GR80 = lowest tested rate (300, 100, 30, 10 g/ha) with 80% or greater inhibition; approx. 14 days after treating; 30/21° C.
# Summary of the method: (§1)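 GR80 values derive from percent inhibition relative to untreated plants, read roughly 14 days after sowing and pre-emergence soil-surface treatment (compound in 50:50 acetone/water; rates typically 10, 30, 100, 300 g/ha). Warm-season weeds grew at 30/21° C day/night, cool-season ones at 18/13° C; an asterisk marks activity without reaching 80% at the highest rate.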
row,SMILES,Pre-emergence activity (GR80) AMARE
1,CCN(CC)C(=O)n1cnc(S(=O)(=O)C(F)(F)SCC(=O)OC)n1 [Example 11],100 g/ha

# Test system: PANMI (wild proso millet)
# Test: Pre-emergence herbicidal activity, warm season
# Assay type: in vivo, Panicum miliaceum
# Settings: GR80 = lowest tested rate (300, 100, 30, 10 g/ha) with 80% or greater inhibition; approx. 14 days after treating; 30/21° C.
# Summary of the method: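 Activity is expressed as the rate giving 80% inhibition, with 300, 100, 30 and 10 g/ha typically tested. An asterisk marks activity short of 80% at the top rate. Warm-season grasses were held at 30/21 °C; cool-season blackgrass and wild buckwheat at 18/13 °C; scoring at about 14 days.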
row,SMILES,Pre-emergence activity (GR80) PANMI
1,CCN(CC)C(=O)n1cnc(S(=O)(=O)C(F)(F)SCC(=O)OC)n1 [Example 11],300 g/ha

# Test system: SETVI (green foxtail)
# Test: Pre-emergence herbicidal activity, cool season
# Assay type: in vivo, Setaria viridis
# Settings: GR80 = lowest tested rate (300, 100, 30, 10 g/ha) with 80% or greater inhibition; approx. 14 days after treating; 18/13° C.
# Summary of the method: as §1
row,SMILES,Pre-emergence activity (GR80) SETVI
1,CCN(CC)C(=O)n1cnc(S(=O)(=O)C(F)(F)SCC(=O)OC)n1 [Example 11],300 g/ha

# Test system: DIGSA (large crabgrass)
# Test: Pre-plant incorporated (PPI) herbicidal activity, warm season
# Assay type: in vivo, Digitaria sanguinalis
# Settings: PPI application, 10 g/ha
# Procedure: (§2) In another set of tests, the pre-plant incorporated (PPI) activity of compounds of this invention was evaluated on the same species as for the pre-emergence tests described above. In the PPI tests the following procedure, designed to simulate PPI application, was used.
# (§3) A pre-prepared topsoil mixture (described above) was placed in a pot and compacted to a depth of 1.0 to 1.25 cm from the top of the pot. Seeds of each of several monocotyledonous and dicotyledonous annual plant species were placed on top of the soil. A sufficient quantity of soil to cover the seeds and level fill the pot was weighed into an open container. A known amount of the test compound was dissolved or suspended in an organic solvent and applied by spraying to this cover soil. The cover soil was thoroughly mixed to distribute the test compound throughout the cover soil, and was then applied as a cover layer over the seeds. Untreated soil was used as a cover layer for control pots. After treatment the plants were placed in a greenhouse where they received 0.64 cm of overhead irrigation. All subsequent watering consisted of a light overhead mist and/or subirrigation as needed for germination and growth. Tables 9 and 10 below relate to warm season plant species which were placed after pre-emergence treatment in a greenhouse with a 30/21° C. day/night temperature regime. Tables 11 and 12 below relates to cool season plant species placed after pre-emergence treatment in a greenhouse or growth chamber with an 18/13° C. day/night temperature regime. Only the compounds of Examples 1, 6, 8, 11, 13 and 15-20 were included in PPI tests.
# (§4) Approximately 14 days after planting and treating, the plants were observed and herbicidal efficacy recorded as percent inhibition by comparison with untreated plants.
row,SMILES,Percent inhibition DIGSA
1,CCN(CC)C(=O)n1cnc(S(=O)(=O)C(F)(F)SCC(=O)OC)n1 [Example 11],0%

# Same assay, conditions: PPI application, 30 g/ha
row,SMILES,Percent inhibition DIGSA
1,CCN(CC)C(=O)n1cnc(S(=O)(=O)C(F)(F)SCC(=O)OC)n1 [Example 11],0%

# Same assay, conditions: PPI application, 100 g/ha
row,SMILES,Percent inhibition DIGSA
1,CCN(CC)C(=O)n1cnc(S(=O)(=O)C(F)(F)SCC(=O)OC)n1 [Example 11],70%

# Same assay, conditions: PPI application, 300 g/ha
row,SMILES,Percent inhibition DIGSA
1,CCN(CC)C(=O)n1cnc(S(=O)(=O)C(F)(F)SCC(=O)OC)n1 [Example 11],90%

# Same assay, conditions: PPI application, 900 g/ha
row,SMILES,Percent inhibition DIGSA
1,CCN(CC)C(=O)n1cnc(S(=O)(=O)C(F)(F)SCC(=O)OC)n1 [Example 11],100%

# Same assay, conditions: pre-plant incorporated; lowest tested rate with 80% or greater inhibition; about 14 days
row,SMILES,"PPI activity GR80, DIGSA"
1,CCN(CC)C(=O)n1cnc(S(=O)(=O)C(F)(F)SCC(=O)OC)n1 [Example 11],300 g/ha

# Test system: GALAP (catchweed bedstraw)
# Test: Pre-plant incorporated (PPI) herbicidal activity, cool season
# Assay type: in vivo, Galium aparine
# Settings: pre-plant incorporated; lowest tested rate with 80% or greater inhibition; about 14 days
# Procedure: as §2, §3, §4
row,SMILES,"PPI activity GR80, GALAP"
1,CCN(CC)C(=O)n1cnc(S(=O)(=O)C(F)(F)SCC(=O)OC)n1 [Example 11],300 g/ha

# Same assay, conditions: weed, PPI application, 10 g/ha
row,SMILES,Percent inhibition GALAP
1,CCN(CC)C(=O)n1cnc(S(=O)(=O)C(F)(F)SCC(=O)OC)n1 [Example 11],0%

# Same assay, conditions: weed, PPI application, 30 g/ha
row,SMILES,Percent inhibition GALAP
1,CCN(CC)C(=O)n1cnc(S(=O)(=O)C(F)(F)SCC(=O)OC)n1 [Example 11],0%

# Same assay, conditions: weed, PPI application, 100 g/ha
row,SMILES,Percent inhibition GALAP
1,CCN(CC)C(=O)n1cnc(S(=O)(=O)C(F)(F)SCC(=O)OC)n1 [Example 11],0%

# Same assay, conditions: weed, PPI application, 300 g/ha
row,SMILES,Percent inhibition GALAP
1,CCN(CC)C(=O)n1cnc(S(=O)(=O)C(F)(F)SCC(=O)OC)n1 [Example 11],20%

# Same assay, conditions: weed, PPI application, 900 g/ha
row,SMILES,Percent inhibition GALAP
1,CCN(CC)C(=O)n1cnc(S(=O)(=O)C(F)(F)SCC(=O)OC)n1 [Example 11],90%

# Test system: LOLMG (annual ryegrass)
# Test: as above
# Assay type: in vivo, Lolium multiflorum
# Settings: pre-plant incorporated; lowest tested rate with 80% or greater inhibition; about 14 days
# Procedure: as §2, §3, §4
row,SMILES,"PPI activity GR80, LOLMG"
1,CCN(CC)C(=O)n1cnc(S(=O)(=O)C(F)(F)SCC(=O)OC)n1 [Example 11],[empty]

# Same assay, conditions: weed, PPI application, 10 g/ha
row,SMILES,Percent inhibition LOLMG
1,CCN(CC)C(=O)n1cnc(S(=O)(=O)C(F)(F)SCC(=O)OC)n1 [Example 11],20%

# Same assay, conditions: weed, PPI application, 30 g/ha
row,SMILES,Percent inhibition LOLMG
1,CCN(CC)C(=O)n1cnc(S(=O)(=O)C(F)(F)SCC(=O)OC)n1 [Example 11],40%

# Same assay, conditions: weed, PPI application, 100 g/ha
row,SMILES,Percent inhibition LOLMG
1,CCN(CC)C(=O)n1cnc(S(=O)(=O)C(F)(F)SCC(=O)OC)n1 [Example 11],70%

# Same assay, conditions: weed, PPI application, 300 g/ha
row,SMILES,Percent inhibition LOLMG
1,CCN(CC)C(=O)n1cnc(S(=O)(=O)C(F)(F)SCC(=O)OC)n1 [Example 11],99%

# Same assay, conditions: weed, PPI application, 900 g/ha
row,SMILES,Percent inhibition LOLMG
1,CCN(CC)C(=O)n1cnc(S(=O)(=O)C(F)(F)SCC(=O)OC)n1 [Example 11],95%

# Test system: AEGCY (jointed goatgrass)
# Test: as above
# Assay type: in vivo, Aegilops cylindrica
# Settings: pre-plant incorporated; lowest tested rate with 80% or greater inhibition; about 14 days
# Procedure: as §2, §3, §4
row,SMILES,"PPI activity GR80, AEGCY"
1,CCN(CC)C(=O)n1cnc(S(=O)(=O)C(F)(F)SCC(=O)OC)n1 [Example 11],[empty]

# Same assay, conditions: weed, PPI application, 10 g/ha
row,SMILES,Percent inhibition AEGCY
1,CCN(CC)C(=O)n1cnc(S(=O)(=O)C(F)(F)SCC(=O)OC)n1 [Example 11],0%

# Same assay, conditions: weed, PPI application, 30 g/ha
row,SMILES,Percent inhibition AEGCY
1,CCN(CC)C(=O)n1cnc(S(=O)(=O)C(F)(F)SCC(=O)OC)n1 [Example 11],0%

# Same assay, conditions: weed, PPI application, 100 g/ha
row,SMILES,Percent inhibition AEGCY
1,CCN(CC)C(=O)n1cnc(S(=O)(=O)C(F)(F)SCC(=O)OC)n1 [Example 11],0%

# Same assay, conditions: weed, PPI application, 300 g/ha
row,SMILES,Percent inhibition AEGCY
1,CCN(CC)C(=O)n1cnc(S(=O)(=O)C(F)(F)SCC(=O)OC)n1 [Example 11],0%

# Same assay, conditions: weed, PPI application, 900 g/ha
row,SMILES,Percent inhibition AEGCY
1,CCN(CC)C(=O)n1cnc(S(=O)(=O)C(F)(F)SCC(=O)OC)n1 [Example 11],10%

# Test system: AGRRE (quackgrass (seedling))
# Test: as above
# Assay type: in vivo, Elymus repens
# Settings: pre-plant incorporated; lowest tested rate with 80% or greater inhibition; about 14 days
# Procedure: as §2, §3, §4
row,SMILES,"PPI activity GR80, AGRRE"
1,CCN(CC)C(=O)n1cnc(S(=O)(=O)C(F)(F)SCC(=O)OC)n1 [Example 11],"* (activity observed, at least at highest rate, but <80% inhibition)"

# Same assay, conditions: weed, PPI application, 10 g/ha
row,SMILES,Percent inhibition AGRRE
1,CCN(CC)C(=O)n1cnc(S(=O)(=O)C(F)(F)SCC(=O)OC)n1 [Example 11],0%

# Same assay, conditions: weed, PPI application, 30 g/ha
row,SMILES,Percent inhibition AGRRE
1,CCN(CC)C(=O)n1cnc(S(=O)(=O)C(F)(F)SCC(=O)OC)n1 [Example 11],0%

# Same assay, conditions: weed, PPI application, 100 g/ha
row,SMILES,Percent inhibition AGRRE
1,CCN(CC)C(=O)n1cnc(S(=O)(=O)C(F)(F)SCC(=O)OC)n1 [Example 11],0%

# Same assay, conditions: weed, PPI application, 300 g/ha
row,SMILES,Percent inhibition AGRRE
1,CCN(CC)C(=O)n1cnc(S(=O)(=O)C(F)(F)SCC(=O)OC)n1 [Example 11],0%

# Same assay, conditions: weed, PPI application, 900 g/ha
row,SMILES,Percent inhibition AGRRE
1,CCN(CC)C(=O)n1cnc(S(=O)(=O)C(F)(F)SCC(=O)OC)n1 [Example 11],0%

# Test system: POAAN (annual bluegrass)
# Test: as above
# Assay type: in vivo, Poa annua
# Settings: weed, PPI application, 10 g/ha
# Procedure: as §2, §3, §4
row,SMILES,Percent inhibition POAAN
1,CCN(CC)C(=O)n1cnc(S(=O)(=O)C(F)(F)SCC(=O)OC)n1 [Example 11],0%

# Same assay, conditions: weed, PPI application, 30 g/ha
row,SMILES,Percent inhibition POAAN
1,CCN(CC)C(=O)n1cnc(S(=O)(=O)C(F)(F)SCC(=O)OC)n1 [Example 11],0%

# Same assay, conditions: weed, PPI application, 100 g/ha
row,SMILES,Percent inhibition POAAN
1,CCN(CC)C(=O)n1cnc(S(=O)(=O)C(F)(F)SCC(=O)OC)n1 [Example 11],0%

# Same assay, conditions: weed, PPI application, 300 g/ha
row,SMILES,Percent inhibition POAAN
1,CCN(CC)C(=O)n1cnc(S(=O)(=O)C(F)(F)SCC(=O)OC)n1 [Example 11],0%

# Same assay, conditions: weed, PPI application, 900 g/ha
row,SMILES,Percent inhibition POAAN
1,CCN(CC)C(=O)n1cnc(S(=O)(=O)C(F)(F)SCC(=O)OC)n1 [Example 11],70%
